Measured values taken from PubChem BioAssay (NCI).
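Method: 48-hour compound exposure of cells in 96-well plates, five concentrations, linear interpolation of endpoints. The concentration for full growth arrest is given as TGI.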

Key:
Test in all cases: NCI anticancer screen, dose series, 48 h
UACC-62 melanoma = tested on: UACC-62 melanoma
A498 renal = tested on: A498 renal
MALME-3M melanoma = tested on: MALME-3M melanoma
HT29 colon = tested on: HT29 colon
CAKI-1 renal = tested on: CAKI-1 renal
COLO 205 colon = tested on: COLO 205 colon
K-562 leukemia = tested on: K-562 leukemia
SNB-19 CNS = tested on: SNB-19 CNS
SK-OV-3 ovarian = tested on: SK-OV-3 ovarian
SW-620 colon = tested on: SW-620 colon
SNB-75 CNS = tested on: SNB-75 CNS
MDA-MB-231 breast = tested on: MDA-MB-231 breast
NCI-H23 lung = tested on: NCI-H23 lung
A549 NSCLC = tested on: A549 NSCLC
BT-549 breast = tested on: BT-549 breast
MCF7 breast = tested on: MCF7 breast
RPMI-8226 leukemia = tested on: RPMI-8226 leukemia
TK-10 renal = tested on: TK-10 renal
HCC-2998 colon = tested on: HCC-2998 colon

Compound	TGI (UACC-62 melanoma)	TGI (A498 renal)	TGI (MALME-3M melanoma)	TGI (HT29 colon)	TGI (CAKI-1 renal)	TGI (COLO 205 colon)	TGI (K-562 leukemia)	TGI (SNB-19 CNS)	TGI (SK-OV-3 ovarian)	TGI (SW-620 colon)	TGI (SNB-75 CNS)	TGI (MDA-MB-231 breast)	TGI (NCI-H23 lung)	TGI (A549 NSCLC)	TGI (BT-549 breast)	TGI (MCF7 breast)	TGI (RPMI-8226 leukemia)	TGI (TK-10 renal)	TGI (HCC-2998 colon)
Nc1ccc(-c2nc3ccccc3s2)cc1F	53.4 µM	4.46 µM	> 100 µM	> 100 µM	54.4 µM	48.3 µM	> 100 µM	87.9 µM	> 100 µM	> 100 µM	82 µM	79 µM	> 100 µM	> 100 µM	> 100 µM	> 100 µM	–	–	–
C=CCN1C[C@@H](C)N([C@@H](c2ccccc2)c2ccc(C(=O)N(CC)CC)cc2)C[C@@H]1C	> 100 µM	> 100 µM	> 100 µM	> 100 µM	> 100 µM	> 100 µM	–	> 100 µM	> 100 µM	> 100 µM	–	> 100 µM	> 100 µM	> 100 µM	> 100 µM	> 100 µM	> 100 µM	–	–
CC(C)N(C(=O)c1ccc(NCc2cc(O)ccc2O)cc1)C(C)C	28.9 µM	62.2 µM	28.9 µM	35 µM	27.2 µM	> 100 µM	> 100 µM	58.6 µM	> 100 µM	82 µM	> 100 µM	32 µM	42.2 µM	> 100 µM	30.7 µM	87.8 µM	–	29.5 µM	–
COC(=O)c1cn(CCCCO)nn1	> 100 µM	–	> 100 µM	> 100 µM	> 100 µM	> 100 µM	–	> 100 µM	–	> 100 µM	> 100 µM	> 100 µM	> 100 µM	> 100 µM	> 100 µM	> 100 µM	–	> 100 µM	> 100 µM
COc1cc2c(cc1O)-c1c(OC)c(O)cc3c1C(C2)N(C)CC3 (stereo not drawn)	> 100 µM	> 100 µM	–	> 100 µM	> 100 µM	> 100 µM	–	> 100 µM	> 100 µM	> 100 µM	> 100 µM	> 100 µM	> 100 µM	> 100 µM	> 100 µM	> 100 µM	> 100 µM	> 100 µM	–
Cc1cn(CCCCOC(=O)NC(CCCNC(N)=O)C(=O)O)c(=O)[nH]c1=O (stereo not drawn)	> 100 µM	–	–	> 100 µM	> 100 µM	> 100 µM	> 100 µM	> 100 µM	> 100 µM	> 100 µM	> 100 µM	> 100 µM	> 100 µM	> 100 µM	> 100 µM	> 100 µM	> 100 µM	> 100 µM	> 100 µM
CC1=C2c3ccccc3N(S(=O)(=O)c3ccccc3)[C@H]2[C@H](C(=O)N2C3CC4CC[C@@]3(CS2(=O)=O)C4(C)C)CC1 (stereo partly drawn)	> 100 µM	> 100 µM	> 100 µM	> 100 µM	> 100 µM	> 100 µM	> 100 µM	> 100 µM	> 100 µM	> 100 µM	19.6 µM	> 100 µM	> 100 µM	> 100 µM	81.7 µM	75.4 µM	7.05 µM	> 100 µM	–
COC(=O)C(CCSc1ccccc1)C(=O)OC	> 100 µM	> 100 µM	> 100 µM	> 100 µM	> 100 µM	> 100 µM	–	–	> 100 µM	> 100 µM	> 100 µM	> 100 µM	> 100 µM	> 100 µM	> 100 µM	> 100 µM	> 100 µM	–	> 100 µM
CCCCCCCCCCCCCCCCNc1ccc2c(c1)OCCOCCOCCOCCO2	11.1 µM	–	13.6 µM	10.9 µM	13.6 µM	3.18 µM	10.7 µM	14.2 µM	9.49 µM	13.3 µM	11.9 µM	11.9 µM	11.5 µM	14.5 µM	11.6 µM	13.2 µM	4.49 µM	25.7 µM	–
COc1ccc(N2C(=O)C3c4[nH]c5cc(Cl)ccc5c4C4CCC(C(C)(C)C)CC4C3C2=O)cc1 (stereo not drawn)	> 100 µM	–	–	> 100 µM	–	> 100 µM	> 100 µM	> 100 µM	> 100 µM	> 100 µM	> 100 µM	> 100 µM	> 100 µM	> 100 µM	> 100 µM	> 100 µM	> 100 µM	> 100 µM	> 100 µM
NN/C(=N\S(=O)(=O)c1cccc2nsnc12)Nc1ccc(Cl)cc1	> 100 µM	> 100 µM	–	> 100 µM	> 100 µM	> 100 µM	> 100 µM	> 100 µM	> 100 µM	> 100 µM	> 100 µM	> 100 µM	> 100 µM	> 100 µM	> 100 µM	> 100 µM	> 100 µM	> 100 µM	–
Cc1ccc(C2SC(N)=Nc3c2c(C)nn3C(=O)c2ccc(Cl)cc2)cc1 (stereo not drawn)	> 10 µM	–	> 10 µM	> 10 µM	> 10 µM	> 10 µM	> 10 µM	> 10 µM	> 10 µM	> 10 µM	> 10 µM	> 10 µM	> 10 µM	> 10 µM	> 10 µM	> 10 µM	> 10 µM	> 10 µM	> 10 µM
CN(C)c1ccc(/C=C2\N=C(c3ccccc3)N(/N=C3\C(=O)Nc4ccccc43)C2=O)cc1	> 100 µM	> 100 µM	> 100 µM	> 100 µM	> 100 µM	81 µM	> 100 µM	> 100 µM	> 100 µM	> 100 µM	> 100 µM	> 100 µM	> 100 µM	> 100 µM	> 100 µM	> 100 µM	–	> 100 µM	> 100 µM
COc1cc(/C=C2/C(=O)N=C(NC(C)=O)N2C)ccc1OC(C)=O	> 100 µM	–	–	> 100 µM	> 100 µM	> 100 µM	–	> 100 µM	> 100 µM	> 100 µM	> 100 µM	> 100 µM	> 100 µM	> 100 µM	> 100 µM	> 100 µM	–	> 100 µM	> 100 µM
COC(=O)C1=C(OC(=O)/C(=C/c2c(F)cccc2F)c2ccccc2)C(C(=O)OC)[C@@]2(O)[C@@H](C(=O)OC)[C@H](C)C[C@@H]1[C@@H]2C(=O)OC (stereo partly drawn)	> 100 µM	–	> 100 µM	> 100 µM	> 100 µM	> 100 µM	> 100 µM	> 100 µM	> 100 µM	> 100 µM	> 100 µM	> 100 µM	> 100 µM	> 100 µM	> 100 µM	–	–	> 100 µM	–
COc1cc2c(cc1OC)CN1CCc3ccccc3CC1C2 (stereo not drawn)	> 100 µM	> 100 µM	> 100 µM	> 100 µM	> 100 µM	> 100 µM	> 100 µM	> 100 µM	> 100 µM	> 100 µM	> 100 µM	> 100 µM	> 100 µM	> 100 µM	> 100 µM	> 100 µM	–	64.3 µM	> 100 µM
COc1ccc(C(=O)C(CC2C(=O)CC(C)(C)C(C(=O)C(=O)Nc3c(C)cccc3C)C2=O)c2ccc(OC)cc2)cc1 (stereo not drawn)	> 100 µM	–	–	> 100 µM	> 100 µM	> 100 µM	–	> 100 µM	> 100 µM	> 100 µM	> 100 µM	> 100 µM	> 100 µM	> 100 µM	> 100 µM	> 100 µM	–	> 100 µM	> 100 µM
Cc1cccc2c(N)c3cccc(C(=O)NCCN4CCOCC4)c3nc12	3.18 µM	5 µM	1.31 µM	3.99 µM	17.3 µM	2.49 µM	–	3.12 µM	16.9 µM	26.1 µM	1.32 µM	4.55 µM	2.17 µM	7.92 µM	8.54 µM	> 32.1 µM	> 60.4 µM	18.6 µM	> 100 µM
Cc1nc2ccc(S(=O)(=O)Nc3ccccc3Cl)cc2c(=O)n1NC(=O)CNc1ccccc1Cl	> 100 µM	–	> 100 µM	> 100 µM	> 100 µM	> 100 µM	> 100 µM	> 100 µM	> 100 µM	> 100 µM	> 100 µM	> 100 µM	> 100 µM	> 100 µM	> 100 µM	> 100 µM	> 100 µM	> 100 µM	> 100 µM
CC(C(=O)N1C(=O)N(C(=O)[C@H](C)C(O)c2ccccc2)[C@H](c2ccccc2)[C@H]1c1ccccc1)[C@@H](O)c1ccccc1 (stereo partly drawn)	51.1 µM	> 100 µM	–	> 100 µM	72.4 µM	33.2 µM	> 100 µM	> 100 µM	> 100 µM	> 100 µM	> 100 µM	48.9 µM	> 100 µM	> 100 µM	71 µM	> 100 µM	–	> 100 µM	> 100 µM
CCN(CC)CCNc1ccc2ncn3c4c(OC)ccc(=O)c4c(O)c1c23	> 100 µM	–	98.6 µM	> 57.8 µM	> 100 µM	> 100 µM	> 100 µM	> 100 µM	> 100 µM	> 43.8 µM	> 100 µM	> 100 µM	> 92.9 µM	> 100 µM	> 100 µM	> 70.7 µM	17.8 µM	> 100 µM	> 100 µM
Cc1ccc(N=Nc2c(C)nn(C(=O)CC(=O)Nc3ccc(Cl)cc3)c2C)cc1C	> 100 µM	> 100 µM	> 100 µM	> 100 µM	> 100 µM	> 100 µM	–	> 100 µM	51.2 µM	> 100 µM	48.7 µM	> 100 µM	> 100 µM	> 100 µM	> 100 µM	> 100 µM	> 100 µM	> 100 µM	> 100 µM
O=C(/C=C/c1ccc(O)cc1)c1cc(O)cc(O)c1	24.1 µM	28.1 µM	47.3 µM	35 µM	43.8 µM	31.9 µM	18.4 µM	30.3 µM	42.4 µM	–	39.9 µM	30.4 µM	43.3 µM	30.6 µM	29.8 µM	12.3 µM	21.3 µM	45.8 µM	–
Cc1ccc(Nc2cc(=O)[nH]c(=O)[nH]2)cc1CS	> 100 µM	> 100 µM	> 100 µM	> 100 µM	> 100 µM	> 100 µM	> 100 µM	> 100 µM	> 100 µM	> 100 µM	> 100 µM	> 100 µM	> 100 µM	> 100 µM	> 100 µM	–	> 100 µM	> 100 µM	> 100 µM
O=C1CCCCCCCCCCC1CN(Cc1ccccc1)Cc1ccccc1 (stereo not drawn)	36.1 µM	–	75.2 µM	–	–	> 100 µM	> 100 µM	> 100 µM	> 100 µM	> 100 µM	–	> 100 µM	> 100 µM	> 100 µM	> 100 µM	68.1 µM	> 100 µM	> 100 µM	85.8 µM
COC(=O)CCSC1=CC(=O)c2nc3ccccc3c3ccnc1c23	21.7 µM	> 100 µM	–	34.1 µM	42.5 µM	> 47 µM	> 42 µM	> 100 µM	> 100 µM	> 53.1 µM	> 100 µM	> 70.7 µM	32 µM	> 100 µM	33 µM	> 50.2 µM	> 100 µM	18.9 µM	27.6 µM
O=C1C(Cl)C(c2cccc(Br)c2)N1c1c(O)c(Cl)cc(Br)c1Cl (stereo not drawn)	33.8 µM	–	55.3 µM	23 µM	81.1 µM	20.8 µM	37.1 µM	11.5 µM	55.8 µM	41.4 µM	–	46 µM	37.9 µM	40 µM	> 100 µM	25.8 µM	37.9 µM	51.4 µM	23.2 µM
